We go through three molecules from patent US11192949B2, “HIV-1 vaccine” (CASE WESTERN RESERVE UNIVERSITY, priority 2013, dated 2021).

Read-outs that look alike come from different tables or passages of the source.

The subject of assay [1] is A74 MVC treated week 21 virus (MVC.21). As to the kind of experiment: Drug susceptibility assay (reverse transcriptase activity) in U87.CD4.CCR5 cells, MVC selected virus MVC.21. It is filed as cell-based, HIV-1. As to the method: (§1) (A) Virus A74 derived from passage control week 21 (PC.21) and MVC treated week 21 (MVC.21) cultures were used to infect U87.CD4.CCR5 cells in the presence of increasing concentrations of MVC. (B) These viruses were also used to infect U87.CD4.CCR5 cells in the presence of maximal inhibitory concentrations (10 μM) of CCR5 antagonists MVC and TAK-779 and fusion inhibitor enfuvirtide (T20). Reverse transcriptase activity was measured 7 days post infection. Percent infection was calculated relative to the no drug control for each virus. Data shown are means of triplicates with error bars representing standard deviations.
(§2) FIG. 15 illustrates a plot showing sensitivity to attachment inhibitor BMS-806. […] Reverse transcriptase activity was measured five days post infection and percent inhibition calculated based on the no drug condition. Data represents means of triplicates with standard deviations.
(§3) U87.CD4.CCR5 cells were plated in 96-well format (1×10^4 cells/well) for 24 hr. Cells were then treated for 2 hr with 5-fold dilutions of MVC (100 μM to 2×10^−6 μM) and then infected at a multiplicity of infection (MOI) of 0.001 infectious units (IU)/cell. All assays were performed in triplicate. After 24 hr, cells were washed in 1×PBS to remove free virus and media containing the appropriate MVC drug dilutions was added. Viral replication was measured daily by radio-labeled reverse transcriptase assay using a Packard beta counter to quantify counts per minute (cpm). Drug sensitivity curves were generated using non-linear regression curve fitting features of GraphPad Prism 5 software.

Assay [2] concerns A74 passage control week 21 virus (PC.21). As to the kind of experiment: Drug susceptibility assay (reverse transcriptase activity) in U87.CD4.CCR5 cells, passage control virus PC.21. The assay is classed as cell-based, HIV-1. As for the experimental part: as §1, §2, §3
The subject of assay [3] is HIV-1 subtype A primary isolate A74. The following applies: U87.CD4.CCR5; virus A74.
The test system of assay [4] is A74 MVC treated week 21 virus (MVC.21). Briefly: Multiple cycle drug sensitivity assay in PBMC, virus MVC.21. It is filed as cell-based, HIV-1. As to the method: (§4) U87.CD4.CCR5 cells were obtained through the AIDS Research and Reference Reagent Program, Division of AIDS, NIAID, NIH. U87.CD4.CCR5 cells were maintained in DMEM supplemented with 10% FBS, 100 μg/mL penicillin/streptomycin, 300 μg/mL G418, and 1 μg/mL puromycin (Invitrogen, Carlsbad, Calif.). 293T cells were cultured in DMEM supplemented with 10% FBS and 100 μg/mL penicillin/streptomycin. Peripheral blood mononuclear cells (PBMCs) were obtained from whole blood extracted from a HIV negative donor by Ficoll-Paque centrifugation. PBMC cultures were stimulated with 1 μg/mL phytohemagglutinin (PHA; Gibco, Carlsbad, Calif.) for 48 hrs in RPMI 1640 medium (Gibco) containing 10% FBS and 100 μg/mL penicillin/streptomycin. Cells were maintained thereafter in RPMI 1640 medium with 10% FBS, 100 μg/mL penicillin/streptomycin, and […] interleukin-2 (IL-2; Gibco).
(§5) All assays were performed in triplicate.
(§6) Therefore, multiple cycle drug sensitivity assays were performed in peripheral blood mononuclear cells (PBMC) isolated from an HIV negative donor with PC.21 and MVC.21.

Assay [5] relates to HIV-1 subtype A primary isolate A74. Briefly: Multiple cycle drug sensitivity assay in PBMC, virus A74. The assay is classed as cell-based.
The test system of assay [6] is gp120 chimeric virus clone MVC.21.128. As for the experimental part: as §3
(§7) Gp120 chimeric viruses were cloned into an NL4-3 backbone from passage control and virus passaged in the presence of MVC escalations using the yeast homologous recombination-gap repair technique. From this point forward, the viruses and clones are referred to as […] (passage control) or MVC (maraviroc selected). 21 (number of passages). 1 (clone number) or PC.21.1 or MVC.21.1. The gp120 regions of the PC.1 (starting virus), PC.21 and MVC.21 viruses were PCR amplified using primers F_gp120 5′-[…]-3′ (SEQ ID NO: 1) and B_gp120 5′-[…]-3′ (SEQ ID NO: 2). Briefly, these gp120 PCR products were then co-transformed with a SacI-linearized pREC_NFL_Δgp120/URA3 into Saccharomyces cerevisiae MYA-906 cells (ATCC). Following homologous recombination, plasmids were extracted from the yeast cells and transformed into electrocompetent Escherichia coli Stbl4 cells (Invitrogen). Individual bacterial colonies were grown and plasmids were extracted using Qiagen miniprep kits. Chimeric pREC_NFL_gp120 plasmids were co-transfected into 293T cells (3×10^4 cells/well) along with the complementing plasmid pCMV_cplt using Fugene 6 reagent (Promega, Madison, Wis.) as described. Heterodiploid virus particles containing one copy of the NFL and cplt HIV-1 RNAs represent approximately half of the virus derived from 293T cell transfections and can be propagated on U87.CD4.CCR5 cells to produce replication competent virus with a complete virus genome. Virus stocks of each clone were titered as described above. The DNA sequences obtained in the course of this work were deposited in the GenBank/EMBL/DDBJ databases under the following accession numbers: env(gp120) (JX993942-JX993981).

Assay [7] concerns gp120 chimeric virus clone MVC.21.119. As for the experimental part: as §3, §7
In assay [8] the test system is gp120 chimeric virus clone PC.1.1. As for the experimental part: as §3, §7
The subject of assay [9] is gp120 chimeric virus clone PC.21.109. As for the experimental part:
as §3, §7

Assay [10] relates to gp120 chimeric virus clone MVC.21.123. As for the experimental part:
as §3, §7

The test system of assay [11] is gp120 chimeric virus clone MVC.21.122. To be noted: U87.CD4.CCR5. As to the method: as §3, §7
The test system of assay [12] is gp120 chimeric virus clone PC.21.111. As to the method: as §3, §7
Assay [13] relates to HIV-1 subtype C primary isolate C8. The following applies: read-out: mean IC50; U87.CD4.CCR5; virus C8. As for the experimental part: as §3
(§8) We assessed “intrinsic” susceptibilities of HIV-1 subtype A, B, and C primary isolates to maraviroc. Multiple cycle drug susceptibility assays were performed in U87.CD4.CCR5 cells in the presence of 5-fold decreasing concentrations of MVC starting at 100 μM.

Assay [14] has as its system HIV-1 subtype B primary isolate B6. The following applies: read-out: mean IC50; U87.CD4.CCR5; virus B6. As for the experimental part: as §3, §8
Assay [15] has as its system A74 passage control week 21 virus (PC.21). As to the kind of experiment: Multiple cycle drug sensitivity assay in PBMC, virus PC.21. It is filed as cell-based, HIV-1. As for the experimental part: as §4, §5, §6
Assay [16] deals with gp120 chimeric virus clone MVC.21.122.425K. As for the experimental part: as §3
The next assay relates to B6.MVC.21 virus. The following applies: U87.CD4.CCR5. As to the method:
as §3
(§9) Reverse transcriptase (RT) activity was monitored in the cell-free supernatant for each weekly passage and inhibitor concentration increased when RT activity reached 2-fold over background.

A further assay relates to B6.PC.21 virus. To be noted: U87.CD4.CCR5. As for the experimental part:
as §3, §9

Assay [17] has as its system gp120 chimeric virus clone MVC.21.132 (A74.MVC.21.132). As to the method: as §3, §7
For multiple replication cycle drug susceptibility assays, U87.CD4.CCR5 cells were plated as above and pretreated with 5-fold dilutions of MVC (100 μM to 2×10^−6 μM). Cells were infected at an MOI of 0.001 IU/cell with NL4-3/gp120 chimeric virus in quadruplicate. […] Reverse transcriptase activity in supernatant was monitored as previously described on days 4 through 7 post infection.

The subject of assay [18] is CC1/85 MVC-resistant virus containing the T316 and V323 V3 loop mutations. To be noted: 1 μM MVC; cited from earlier work.
The subject of assay [19] is A74.MVC.21.132 psuedovirus. As to the method: (§10) For single replication cycle drug susceptibility assays, U87.CD4.CCR5 cells in 96-well format (1×10^4 cells/well) were pretreated for 2 hours with 10-fold dilutions of MVC (1 μM to 1×10^−7 μM) then infected in triplicate with luciferase encoding psuedovirus. After 48 hours, supernatant was removed and cells were lysed using 50 μL Glo lysis buffer (Promega, Madison, Wis.). Cells were lysed for 20 minutes at room temperature, transferred to white polystyrene 96 well plates, and read with a PerkinElmer VICTOR plate reader using injectors to introduce 50 μL Bright Glo reagent per well (Promega, Madison, Wis.). Luciferase activity was measured as relative light units (RLU).

For assay [20], the system named is subtype B patient-derived MVC resistant virus R3. The following applies: clone R3; single cycle conditions. As for the experimental part:
as §10

The test system is the same in assay [21]. To be noted: clone R3; multiple cycle conditions. As for the experimental part:
For multiple replication cycle drug susceptibility assays, U87.CD4.CCR5 cells were plated as above and pretreated with 5-fold dilutions of MVC (100 μM to 2×10^−6 μM). Cells were infected at an MOI of 0.001 IU/cell with NL4-3/gp120 chimeric virus in quadruplicate. After 24 hours, viral inoculums were removed and replaced with media containing the appropriate MVC dilutions. Reverse transcriptase activity in supernatant was monitored as previously described on days 4 through 7 post infection.

Where [22] appears, read: highest MVC concentrations (4, 20, 100 μM).

By inhibition is commonly meant the percentage by which the read-out fell short of the control. Lower therefore signals a response near the control. Take `COc1ccnc2[nH]cc(C(=O)C(=O)N3CCN(C(=O)c4ccccc4)C[C@H]3C)c12` [BMS-806]: the inhibition was found to be 98% in assay [1] (highest concentrations tested (50 and 5 μM), MVC.21); 46% in assay [2] (highest concentrations tested (50 and 5 μM), PC.21).

As to `Cc1ccc(-c2ccc3c(c2)C=C(C(=O)Nc2ccc(C[N+](C)(C)C4CCOCC4)cc2)CCC3)cc1.[Cl-]` [TAK-779], the “inhibition of virus replication” value is recorded as “cross resistance” in assay [1] (10 μM (IC99 inhibitory concentration), MVC.21) and “completely blocked” in assay [2] (10 μM (IC99 inhibitory concentration), PC.21).

As a reminder, the IC50 is the midpoint of a concentration-inhibition curve. Take Maraviroc [MVC]: the half-maximal inhibitory concentration (IC50) amounted to 10 nM in assay [3]; 300 nM in [4]; 216 nM in assay [1] (virus MVC.21); 5 nM in [5]; 37 nM in assay [6] (U87.CD4.CCR5); 34 nM in assay [7] (U87.CD4.CCR5). Besides, the IC50 in [11] was 0.9 nM; in [13] it was 2 nM; in assay [14], 2 nM; in assay [15], 5 nM; in assay [15] (read-out: IC50), 6 nM; in [2] (virus PC.21), 1 nM. The half-maximal inhibitory concentration (IC50) turned out to be 33 nM in assay [16] (U87.CD4.CCR5); 14 nM with B6.MVC.21 virus (B6 week 21 inhibitor treated culture); 8 nM in the assay with B6.PC.21 virus (B6 week 21 control culture); 8.8 nM in assay [17] (clone MVC.21.132, U87.CD4.CCR5). In addition, the “MPI (maximal percent inhibition)” value in [3] was 99%; in [1] (virus MVC.21, highest drug concentration tested 100 μM) it was 81%; in assay [2] (virus PC.21), 100%; in the assay on B6.MVC.21 virus (virus B6.MVC.21), 99%; in the assay with B6.PC.21 virus (virus B6.PC.21), 100%. The MPI in [4] is listed as 73%; in assay [5] it was 100%; in assay [6], over 95%; in assay [7], over 95%; in [10] it was over 95%; in assay [15], 98%. For the same molecule, the MPI in [17] (clone MVC.21.132) is reported as over 95%. Moreover, the “IC50 fold change relative to input gp120 clone PC.1.1” value is 40 fold in [6], 40 fold in [7], 11 fold in [10] and 10 fold in [17] (clone MVC.21.132). Further, the “inhibition (RT activity)” value in [7] (setting [22]) was 97%; in assay [9] (setting [22]) it was 99.9%. The “sensitivity to MVC inhibition” value in assay [8], in assay [9] and in [12] was “sensitive” in each case. For the same molecule, the “shift in IC50 relative to MVC.21.122” value in [16] amounted to 36 fold. For the same molecule, the “rightward shift in IC50 compared with MVC sensitive clone A74.PC.21.109” value in [17] (A74.MVC.21.132, multiple replication cycle conditions) is listed as 17 fold. The “level of replication in the presence of drug as compared to the absence of drug” value in assay [18] was 25%. Further, the “resistance in single cycle assay” value in assay [19] is listed as “resistance could not be detected”. Moreover, the “maximal percent inhibition (MPI)” value in assay [20] is 56%; in [21] it was 61%.
